Legend:
[1] = test system: MCF7 cells; experiment: XTT dye reduction assay; assay type: cell-based, human; details: three days
Experimental: (§1) The effects of the compounds on viability of tumor cells in culture were monitored by using XTT assays with MCF7 and ZR75-1 cell lines. MCF7 cells were grown in DMEM containing 10% fetal bovine serum, penicillin/streptomycin, supplemented with 10^−10 M insulin, 1 mM sodium pyruvate and glutamine. ZR75-1 cells were grown in RPMI containing 10% fetal bovine serum, penicillin/streptomycin, supplemented with HEPES buffer, 1 mM sodium pyruvate and glutamine. Cells were regularly tested for mycoplasma contamination. Cells were seeded triplicates at an initial cell density of 1,000 cells per well. Blank wells received no cells.
(§2) Relative numbers of viable cells was determined by XTT assay. Briefly, in a 96-well plate, we added 50 μl of a mixture of 1 mg/ml of XTT (2,3-bis(2-methoxy-4-nitro-5-sulfophenyl)-5-[(phenylamino)carbonyl]-2H-tetrazolium hydroxide) (Polysciences, Washington, Pa.) containing 0.025 mM PMS (phenazine methosulfate) to each well. The 96-well plates were reincubated for an additional 4 hours to allow for XTT formazan production. Then, the contents of each plate were mixed and optical densities were determined at a wavelength of 450 nm (OD450). Net OD450 was determined after subtracting OD450 of blank wells. Low-passage HeLa cells (between passage number 10 and 20) were transfected with pcDNA3-BCL-XL or control pcDNA3 plasmids using Lipofectamine Plus reagent (Invitrogen) and selected in medium containing 800 μg/ml of G418. Immunoblot analysis of BCL-XL was accomplished as previously described.

[2] = test system: ZR75-1 cells; experiment: XTT dye reduction assay; assay type: cell-based, human; details: three days
Experimental: as §1, §2

[3] = target: BCL-XL (Homo sapiens (Human), UniProt Q07817); experiment: Fluorescence polarization assay with fluorescein-labeled Bad peptide; assay type: binding; details: Table 5
BCL-XL, sequence (Q07817 whole entry): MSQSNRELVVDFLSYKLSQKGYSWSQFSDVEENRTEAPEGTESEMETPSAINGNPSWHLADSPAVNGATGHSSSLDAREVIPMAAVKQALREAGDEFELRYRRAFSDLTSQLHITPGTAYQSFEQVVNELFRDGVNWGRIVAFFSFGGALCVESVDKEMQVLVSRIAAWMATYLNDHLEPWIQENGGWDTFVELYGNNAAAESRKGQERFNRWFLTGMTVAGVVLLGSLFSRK
Experimental: FP A assays were conducted with a fluorescein-labeled Bad peptide (NL […] Corporation, Dublin, Calif.) using a LJL Analyst HT Molecular Devices Co., Sunnyvale, Calif.). […] The tubes were incubated for 5 minutes at room temperature and 20 μl each of reaction mixture was transferred to 96-well black PS, HE Microplate (LJL Biosystems Co). All assays were performed in quadruplicate, with blank wells receiving no Gossypol. […] Controls included dose-responses measurements in absence of the proteins, to assess any interactions between the compounds and the FITC-BH3 peptide. Eventual effects were taken into account by subtraction.

## O=c1c(O)cccc2cc(O)c(O)c(O)c12 [Purpurogallin]
[1]
  IC50, cell viability MCF7: did not show appreciable activity
[2]
  IC50, cell viability ZR75-1: did not show appreciable activity
[3]
  IC50: 2.2 µM
